The values below come from patent US4642314A, “Antiulcer compounds” (Nisshin Flour Milling Co., Ltd., priority 1984, dated 1987).

The structures appear in SMILES notation.

Data set [1] has as its system acetic acid-induced ulcer. The experiment in a line: Acetic acid-induced ulcer (Curative test). Conditions: Table 2; rat, 0.05 ml of 15% acetic acid underneath the serosa; lesion area on 14th day. Type of data set: in vivo, rat (male SD rats). On the procedure: (§1) In the case of reserpine-induced ulcer, the assay was performed according to the description in "Arch. Int. Pharmacodym. Ther. 147,113 (1964)", and in the case of acetic acid-induced ulcer, the assay was performed according to the method described in "Jap. J. Pharmac. 19,418 (1969)", by inducing experimental ulcer in rat and evaluating the effect thereon of the compounds tested.
Groups of rats, each consisting of 6 male SD rats weighing 150-200 g were used. The stomach of ether-anesthesized rat was exposed and while taking acre not to injure blood vessels, 0.05 ml of 15% aqueous acetic acid solution was injected underneath the serosa. On the 14th day, the rats were killed with chloroform, the stomach taken out and the area of the infected lesion measured.
The curative ratio was calculated using the above equation: [formula]

Data set [2] can be described thus: acute toxicity (LD50), intraperitoneal route in mice. It counts as in vivo. Conditions: mouse, in vivo, ip.
The test system of the next data set is reserpine-induced ulcer. The experiment in a line: Reserpine-induced ulcer (Preventive test). It counts as in vivo, rat (male SD rats). Conditions: Table 1; rat, 100 mg/kg oral, 30 min before reserpine 15 mg/kg i.p.; evaluated at 18 h; read-out: Preventive effect (preventive ratio). The procedure:
as §1
Groups of rats, each consisting of 6 male SD rats weighing 150-200 g were used. After 24 hours' fasting, a sample compound was orally administered to the rat at the dose of 100 mg/kg body weight, and 30 minutes after the administration, reserpine was intraperitoneally injected at the dose of 15 mg/kg body weight. Eighteen hours after the administration, the rats were killed with chloroform. The stomach was taken out, and severity of the hemorrhaging lesion was evaluated according to the method as above ("Arch. Int. Pharmacodym. Ther. 147,113 (1964)).
The preventive ratio was calculated using the following equation, [formula] wherein the control animals were intraperitoneally given reserpine only, at the dose of 15 mg/kg body weight.

By LD50 is commonly meant the dose expected to kill half of the subjects tested. A higher LD50 goes with a less toxic substance. With `CCCCC/C=C\C/C=C\CCCCCCCC(=O)OC/C=C(\C)CCC[C@H](C)CCC[C@H](C)CCCC(C)C` [Phytyl linoleate], the “Curative effect (curative ratio)” value in data set [1] is reported as “+ (10%-25%)”. This molecule also displayed an LD50 in data set [2] (Table 2) of over 4000 mg/kg.
In the case of `COC(=O)CCC=C(C)CCC=C(C)CCC=C(C)CCC=C(C)CCC=C(C)CCC=C(C)CCC=C(C)CCC=C(C)CCC=C(C)C` [Methyl solanesylacetate], the “Curative effect (curative ratio)” value in data set [1] is listed as “++ (25%-40%)”. In addition, the LD50 in data set [2] (Table 2) was over 4000 mg/kg.
The matching figures for `CCCCCCCCC1OC1CCCCCCCC(=O)OC/C=C(\C)CCC[C@H](C)CCC[C@H](C)CCCC(C)C` (some centres unmarked) [Phytyl 9,10-epoxystearate]: “+ (10%-25%)” and over 5000 mg/kg.
For the molecule `CCOC(=O)CCC=C(C)CCC=C(C)CCC=C(C)CCC=C(C)CCC=C(C)CCC=C(C)CCC=C(C)CCC=C(C)CCC=C(C)C` [Ethyl solanesylacetate], the “Curative effect (curative ratio)” value in data set [1] is “++ (25%-40%)”. In data set [2] (Table 2), this molecule registered an LD50 of over 4000 mg/kg.
In the same order, the values of `CCCCCCCCCCC/C=C\CCCCC(=O)OCC=C(C)CCC=C(C)CCC=C(C)CCC=C(C)CCC=C(C)CCC=C(C)CCC=C(C)CCC=C(C)CCC=C(C)CCC=C(C)C` [Decaprenyl petroselinate] are “++ (25%-40%)” and over 4000 mg/kg.
In the case of `CCOC(=O)CCC=C(C)CCC=C(C)CCC=C(C)CCC=C(C)CCC=C(C)CCC=C(C)CCC=C(C)CCC=C(C)CCC=C(C)CCC=C(C)C` [Ethyl decaprenylacetate], in data set [1], the “Curative effect (curative ratio)” value is given as “+++ (40%-)”. In data set [2] (Table 2), this molecule registered an LD50 of over 4000 mg/kg.
The matching figures for `CC(C)=CCCC(C)=CCCC(C)=CCCC(C)=CCCC(C)=CCCC(C)=CCCC(C)=CCCC(C)=CCCC(C)=CCCC(C)=CCCC(=O)OCCC(C)C` [Isoamyl decaprenylacetate]: “+ (10%-25%)” and over 4000 mg/kg.
In the same order, the values of `CC(C)=CCCC(C)=CCCC(C)=CCCC(C)=CCCC(C)=CCCC(C)=CCCC(C)=CCCC(C)=CCCC(C)=CCCC(=O)OCC=C(C)CCC=C(C)CCC=C(C)CCC=C(C)CCC=C(C)CCC=C(C)CCC=C(C)CCC=C(C)CCC=C(C)CCC=C(C)C` [Decaprenyl solanesylacetate] are “+ (10%-25%)” and over 5000 mg/kg.
As for `CC(C)=CCCC(C)=CCCC(=O)OCC=C(C)CCC=C(C)CCC=C(C)CCC=C(C)CCC=C(C)CCC=C(C)CCC=C(C)CCC=C(C)CCC=C(C)C` [Solanesyl geranylacetate], in data set [1], the “Curative effect (curative ratio)” value was “+ (10%-25%)”. Further, the LD50 in data set [2] (Table 2) was over 4000 mg/kg.
In the case of `CC(C)=CCCC(C)=CCCC(C)=CCCC(=O)OCC=C(C)CCC=C(C)CCC=C(C)CCC=C(C)CCC=C(C)CCC=C(C)CCC=C(C)CCC=C(C)CCC=C(C)CCC=C(C)C` [Decaprenyl farnesylacetate], the “Curative effect (curative ratio)” value in data set [1] is reported as “+ (10%-25%)”. Also, in data set [2] (Table 2), the LD50 is over 5000 mg/kg.
In the case of `CC(C)=CCCC(C)CCCC(=O)OC/C=C(\C)CCC[C@H](C)CCC[C@H](C)CCCC(C)C` (some centres unmarked) [Phytyl citronellylacetate], the inhibition in vivo at 100 mg/kg in the data set with reserpine-induced ulcer lay within 10 to 40%. For the same molecule, the LD50 in data set [2] (Table 1) was over 5000 mg/kg.
The matching figures for `CC(C)=CCCC(C)=CCCC(C)=CCCC(C)=CCCC(C)=CCCC(C)=CCCC(C)=CCCC(C)=CCCC(C)=CCCC(=O)OCC=C(C)CCC=C(C)CCC=C(C)CCC=C(C)CCC=C(C)CCC=C(C)CCC=C(C)CCC=C(C)CCC=C(C)C` [Solanesyl solanesylacetate]: 10 to 40% and over 4000 mg/kg.
The matching figures for `CCCCCCCCCCCC(=O)OC/C=C(\C)CCC[C@H](C)CCC[C@H](C)CCCC(C)C` [Phytyl laurate]: 40 to 60% and over 5000 mg/kg.
In the same order, the values of `CC(C)=CCCC(C)=CCCC(C)=CCCC(C)=CCCC(C)=CCCC(C)=CCCC(C)=CCCC(C)=CCCC(C)=CCCC(C)=CCCC(=O)OCC=C(C)CCC=C(C)CCC=C(C)CCC=C(C)CCC=C(C)CCC=C(C)CCC=C(C)CCC=C(C)CCC=C(C)C` [Solanesyl decaprenylacetate] are 10 to 40% and over 4000 mg/kg.
Take `CC(C)=CCCC(C)=CCCC(C)=CCCC(C)=CCCC(C)=CCCC(C)=CCCC(C)=CCCC(C)=CCCC(C)=CCCC(C)=CCCC(=O)Oc1c(C)c(C)c2c(c1C)CCC(C)(CCCC(C)CCCC(C)CCCC(C)C)O2` (stereo not drawn) [α-Tocopheryl decaprenylacetate]: the inhibition in vivo at 100 mg/kg in the data set on reserpine-induced ulcer fell in the range of 10 to 40%. In addition, the LD50 in data set [2] (Table 1) was over 4000 mg/kg.
Turning to `COC(=O)CCC=C(C)CCC=C(C)CCC=C(C)CCC=C(C)CCC=C(C)CCC=C(C)CCC=C(C)CCC=C(C)CCC=C(C)CCC=C(C)C` [Methyl decaprenylacetate], in data set [1], the “Curative effect (curative ratio)” value is reported as “++ (25%-40%)”. Further, the LD50 in data set [2] (Table 2) was over 4000 mg/kg.
In the same order, the values of `CC(C)=CCCC(C)=CCCC(=O)OCC=C(C)CCC=C(C)CCC=C(C)CCC=C(C)CCC=C(C)CCC=C(C)CCC=C(C)CCC=C(C)CCC=C(C)CCC=C(C)C` [Decaprenyl geranylacetate] are “+ (10%-25%)” and over 5000 mg/kg.
In the same order, the values of `CC(C)=CCCC(C)=CCCC(C)=CCCC(C)=CCCC(C)=CCCC(C)=CCCC(C)=CCCC(C)=CCCC(C)=CCCC(C)=CCCC(=O)OC(C)C` [Isopropyl decaprenylacetate] are “+ (10%-25%)” and over 4000 mg/kg.
The matching figures for `CC(C)=CCCC(C)=CCCC(C)=CCCC(C)=CCCC(C)=CCCC(C)=CCCC(C)=CCCC(C)=CCCC(C)=CCCC(=O)O` [Solanesylacetic acid]: “+ (10%-25%)” and over 4000 mg/kg.
Regarding `CC(=O)OCC=C(C)CCC=C(C)CCC=C(C)CCC=C(C)CCC=C(C)CCC=C(C)CCC=C(C)CCC=C(C)CCC=C(C)C` [Solanesyl acetate], the inhibition in vivo at 100 mg/kg in the data set with reserpine-induced ulcer was in the range of 40 to 60%. In data set [2] (Table 1), this molecule had an LD50 of over 4000 mg/kg.
In the same order, the values of `C/C(=C\CCC(=O)OC/C=C(\C)CCC[C@H](C)CCC[C@H](C)CCCC(C)C)CCC[C@H](C)CCC[C@H](C)CCCC(C)C` [Phytyl phytylacetate] are 40 to 60% and over 5000 mg/kg.
Consider `CCCCCCCCCCC/C=C\CCCCC(=O)OC/C=C(\C)CCC[C@H](C)CCC[C@H](C)CCCC(C)C` [Phytyl petroselinate], for which the “Curative effect (curative ratio)” value in data set [1] was “++ (25%-40%)”. Also, the LD50 in data set [2] (Table 2) is over 5000 mg/kg.
On to `CCCCCCCC/C=C\CCCCCCCC(=O)OCCC(C)CCCC(C)CCCC(C)CCCC(C)C` (centres unmarked) [Dihydrophytyl oleate], for which the inhibition in vivo at 100 mg/kg in the data set on reserpine-induced ulcer was in the range of 10 to 40%. Besides, the LD50 in data set [2] (Table 1) is over 4000 mg/kg.
In the same order, the values of `CCCCCCCCCCCCCCCCCC(=O)OCCC(C)CCCC(C)CCCC(C)CCCC(C)C` (centres unmarked) [Dihydrophytyl stearate] are 10 to 40% and over 4000 mg/kg.
With `CCCCCCCCCCCCCCCCCC(=O)OC/C=C(\C)CCC[C@H](C)CCC[C@H](C)CCCC(C)C` [Phytyl stearate], the “Curative effect (curative ratio)” value in data set [1] is “+ (10%-25%)”. In addition, the LD50 in data set [2] (Table 2) is over 4000 mg/kg.
Regarding `CCCCCC[C@@H](O)C/C=C\CCCCCCCC(=O)OC/C=C(\C)CCC[C@H](C)CCC[C@H](C)CCCC(C)C` [Phytyl ricinoleate], the “Curative effect (curative ratio)” value in data set [1] was “+ (10%-25%)”. This molecule registered an LD50 in data set [2] (Table 2) of over 5000 mg/kg.
In the case of `CC(C)=CCCC(C)=CCCC(C)=CCCC(C)=CCCC(C)=CCCC(C)=CCCC(C)=CCCC(C)=CCCC(C)=CCOC(=O)CCC=C(C)CCCC(C)CCCC(C)CCCC(C)C` (centres unmarked) [Solanesyl phytylacetate], the inhibition in vivo at 100 mg/kg in the data set with reserpine-induced ulcer lay within 10 to 40%. The LD50 in data set [2] (Table 1) is over 4000 mg/kg.
In the same order, the values of `COC(=O)CC/C=C(\C)CCC[C@H](C)CCC[C@H](C)CCCC(C)C` [Methyl phytlacetate, Methyl phytylacetate] are 10 to 40% and over 5000 mg/kg.
For `CCCCCCCC/C=C/CCCCCCCC(=O)OC/C=C(\C)CCC[C@H](C)CCC[C@H](C)CCCC(C)C` [Phytyl elaidate], the “Curative effect (curative ratio)” value in data set [1] was “+ (10%-25%)”. The LD50 in data set [2] (Table 2) is over 4000 mg/kg.
With `CCCCCCCCCCCCCCCC(=O)OC/C=C(\C)CCC[C@H](C)CCC[C@H](C)CCCC(C)C` [Phytyl palmitate], the inhibition in vivo at 100 mg/kg with reserpine-induced ulcer lay within 40 to 60%. The LD50 in data set [2] (Table 1) is over 5000 mg/kg.
`C/C(=C\CCC(=O)OC(C)C)CCC[C@H](C)CCC[C@H](C)CCCC(C)C` [Isopropyl phytylacetate]: in the data set with reserpine-induced ulcer, the inhibition in vivo at 100 mg/kg lay in the range of 10 to 40%. The molecule also displayed an LD50 in data set [2] (Table 1) of over 5000 mg/kg.
With `CC(C)=CCCC(C)=CCCC(C)=CCCC(C)=CCCC(C)=CCCC(C)=CCCC(C)=CCCC(C)=CCCC(C)=CCCC(=O)Oc1c(C)c(C)c2c(c1C)CCC(C)(CCCC(C)CCCC(C)CCCC(C)C)O2` (stereo not drawn) [α-Tocopheryl solanesylacetate], the inhibition in vivo at 100 mg/kg with reserpine-induced ulcer lay in the range of 40 to 60%. In data set [2] (Table 1), this molecule yielded an LD50 of over 4000 mg/kg.
Consider `CCCCCCCC/C=C/CCCCCCCCCCCC(=O)OCC=C(C)CCC=C(C)CCC=C(C)CCC=C(C)CCC=C(C)CCC=C(C)CCC=C(C)CCC=C(C)CCC=C(C)CCC=C(C)C` [Decaprenyl brassidate], for which, in data set [1], the “Curative effect (curative ratio)” value is given as “++ (25%-40%)”. This molecule also showed an LD50 in data set [2] (Table 2) of over 4000 mg/kg.
For `CC(C)=CCCC(C)=CCCC(C)=CCCC(C)=CCCC(C)=CCCC(C)=CCCC(C)=CCCC(C)=CCCC(C)=CCCC(C)=CCO` [Decaprenol], the “Curative effect (curative ratio)” value in data set [1] was “+++ (40%-)”. Also, in data set [2] (Table 2), the median lethal dose (LD50) is over 4000 mg/kg.
